# Measured values published in BigSolDB 2.1.
smiles,measurement,setting,value
CC1=C(/C=C/C(C)=C/C=C/C(C)=C/C=C/C=C(C)/C=C/C=C(C)/C=C/C2=C(C)C(=O)CCC2(C)C)C(C)(C)CCC1=O,solubility (mole fraction),"in acetone, 293.15 K",1.95e-05
same,solubility (mole fraction),"in acetone, 298.15 K",2.45e-05
same,solubility (mole fraction),"in acetone, 303.15 K",3.1e-05
same,solubility (mole fraction),"in acetone, 308.15 K",3.72e-05
same,solubility (mole fraction),"in acetone, 313.15 K",4.22e-05
same,solubility (mole fraction),"in acetone, 318.15 K",4.94e-05
same,solubility (mole fraction),"in cyclohexane, 293.15 K",1.27e-05
same,solubility (mole fraction),"in cyclohexane, 303.15 K",1.33e-05
same,solubility (mole fraction),"in cyclohexane, 313.15 K",1.38e-05
same,solubility (mole fraction),"in cyclohexane, 323.15 K",1.48e-05
same,solubility (mole fraction),"in cyclohexane, 333.15 K",1.71e-05
same,solubility (mole fraction),"in cyclohexane, 343.15 K",2.06e-05
same,solubility (mole fraction),"in ethanol, 293.15 K",4.5e-06
same,solubility (mole fraction),"in ethanol, 303.15 K",5.6e-06
same,solubility (mole fraction),"in ethanol, 313.15 K",6.35e-06
same,solubility (mole fraction),"in ethanol, 323.15 K",7.48e-06
same,solubility (mole fraction),"in ethanol, 333.15 K",8.72e-06
same,solubility (mole fraction),"in ethanol, 343.15 K",9.9e-06
same,solubility (mole fraction),"in ethyl acetate, 293.15 K",2.71e-05
same,solubility (mole fraction),"in ethyl acetate, 303.15 K",3.67e-05
same,solubility (mole fraction),"in ethyl acetate, 313.15 K",5.43e-05
same,solubility (mole fraction),"in ethyl acetate, 323.15 K",8.58e-05
same,solubility (mole fraction),"in ethyl acetate, 333.15 K",0.000144
same,solubility (mole fraction),"in ethyl acetate, 343.15 K",0.000256
same,solubility (mole fraction),"in methanol, 293.15 K",2.61e-06
same,solubility (mole fraction),"in methanol, 303.15 K",2.93e-06
same,solubility (mole fraction),"in methanol, 313.15 K",3.27e-06
same,solubility (mole fraction),"in methanol, 323.15 K",3.77e-06
same,solubility (mole fraction),"in methanol, 333.15 K",4.53e-06
same,solubility (mole fraction),"in toluene, 293.15 K",0.000118
same,solubility (mole fraction),"in toluene, 303.15 K",0.000146
same,solubility (mole fraction),"in toluene, 313.15 K",0.000171
same,solubility (mole fraction),"in toluene, 323.15 K",0.00019
same,solubility (mole fraction),"in toluene, 333.15 K",0.000202
same,solubility (mole fraction),"in toluene, 343.15 K",0.000208
